According to patent US9409952B2, “Peptide-compound cyclization method” (Chugai Seiyaku Kabushiki Kaisha, priority 2011, dated 2016):
Where two headings read alike, the source gives them in different places. Starred links: 1 amine or outer side, 2 acyl side, 3 side chain; linkers in the order of their positions; H or OH if unused. Positions of bridges follow the written chain, without caps; N, C: chain ends. Non-standard residues stand in square brackets, D forms with d. Residues, ends and D or L forms follow the SMILES beside them. ξ: configuration not given here. *: point of attachment. NMeF = CN[C@@H](Cc1ccccc1)C(=O)O; NMeI = CC[C@H](C)[C@H](NC)C(=O)O; NMeβAla = CN(CCC(=O)[*:2])[*:1]; NMeξIle = CC[C@H](C)C(NC)C(=O)O; NMeL = CN[C@@H](CC(C)C)C(=O)O; NMeV = CN[C@H](C(=O)O)C(C)C; NMeA = CN[C@@H](C)C(=O)O; Piperidide = C1CCN(*)CC1; dNMeA = CN[C@H](C)C(=O)O; ξL = CC(C)CC(N)C(=O)O; Sar = CNCC(=O)O; tBu = CC(C)(C)*

Legend:
[1] = Metabolic stability in human hepatic microsome; assay type: in vitro ADME; details: human
[2] = PAMPA (parallel artificial membrane permeability assay); assay type: in vitro ADME; details: PAMPA
Summary of the method: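 Artificial membrane was 10% (w/v) egg lecithin plus 0.5% (w/v) cholesterol in dodecane on a PVDF filter. A 10 mM DMSO stock was added at 0.5% (v/v) to donor buffer (50 mM MOPSO, pH 6.5, 5.0% glycocholic acid). After 18 h at 37 °C, LC/MS or LC/UV gave donor and acceptor levels for Pe.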

[3] = human hepatic microsomes, pH 7.4, human hepatic microsome, NADPH(+), read-out: CL NADPH(+)
[4] = membrane permeation rate (Pe), 50 mM MOPSO buffer pH 6.5 with 5.0% glycocholic acid, 37° C., 18 hours, read-out: iPAMPA Pe
[5] = microsomes, pH 7.4, CL NADPH(+)

Row | Structure (SMILES) | microsomal CLint at 1 uM [1, 3] | Papp at 18 hours, 50 µM [2, 4] | microsomal CLint at 1 uM [1, 5] | Papp at 18 hours, 50 µM ([2]; pH 6.5)
1 | CC[C@H](C)[C@H]1C(=O)N[C@@H](C)C(=O)N[C@H](C(=O)N2CCCCC2)CC(=O)N(C)[C@@H](C)C(=O)N[C@@H]([C@@H](C)O)C(=O)N(C)[C@@H](Cc2ccccc2)C(=O)N[C@@H](CC(C)C)C(=O)N2CCC[C@H]2C(=O)N(C)[C@@H](C(C)C)C(=O)N[C@@H](Cc2ccccc2)C(=O)N(C)CC(=O)N(C)[C@@H](CC(C)C)C(=O)N1C [DP-58] ([NMeA]T[NMeF]LP[NMeV]F[Sar][NMeL][NMeI]AD-Piperidide; lactam N-12) | 27 µL/min/mg | 20 ×10⁻⁶ cm/s |  | 
2 | CC[C@H](C)[C@H]1C(=O)NCC(=O)N(C)[C@@H](Cc2ccccc2)C(=O)N[C@@H]([C@@H](C)O)C(=O)N(C)[C@@H](C)C(=O)N[C@@H](CC(C)C)C(=O)N[C@H](C(=O)N2CCCCC2)CC(=O)N(C)CCC(=O)N(C)[C@@H](C)C(=O)N[C@@H](Cc2ccccc2)C(=O)N[C@@H](C(C)C)C(=O)N(C)[C@@H](CC(C)C)C(=O)N1C [DP-59] ([NMeβAla][NMeA]FV[NMeL][NMeI]G[NMeF]T[NMeA]LD-Piperidide; lactam N-12) |  |  | 65 µL/min/mg | 21 ×10⁻⁶ cm/s
3 | CC[C@H](C)C1C(=O)N[C@H](C(=O)N2CCCCC2)CC(=O)N(C)CC(=O)N(C)CC(=O)N[C@@H]([C@@H](C)O)C(=O)N(C)[C@@H](Cc2ccccc2)C(=O)N(C)[C@@H](CC(C)C)C(=O)N[C@@H](COC(C)(C)C)C(=O)N(C)[C@@H](CC(C)C)C(=O)N1C (stereo partly drawn) [DP-60] ([Sar][Sar]T[NMeF][NMeL]S(tBu)[NMeL][NMeξIle]D-Piperidide; lactam N-9) |  |  | 145 µL/min/mg | 42 ×10⁻⁶ cm/s
4 | CC[C@H](C)[C@H]1C(=O)N(C)[C@@H](Cc2ccccc2)C(=O)N[C@H](C(=O)N2CCCCC2)CC(=O)N(C)CCC(=O)NC(CC(C)C)C(=O)N(C)[C@@H](Cc2ccccc2)C(=O)N(C)[C@@H](CC(C)C)C(=O)N(C)[C@@H](C(C)C)C(=O)N[C@@H](C)C(=O)N(C)[C@@H](C)C(=O)N[C@@H]([C@@H](C)O)C(=O)N(C)CC(=O)N1C (stereo partly drawn) [DP-61] ([NMeβAla][ξL][NMeF][NMeL][NMeV]A[NMeA]T[Sar][NMeI][NMeF]D-Piperidide; lactam N-12) |  |  | 47 µL/min/mg | 19 ×10⁻⁶ cm/s
5 | CC[C@H](C)[C@H]1C(=O)NCC(=O)N[C@H](C(=O)N2CCCCC2)CC(=O)N(C)[C@H](C)C(=O)N[C@@H](Cc2ccccc2)C(=O)N(C)[C@@H](CC(C)C)C(=O)N[C@@H](COC(C)(C)C)C(=O)N[C@@H](Cc2ccccc2)C(=O)N2CCC[C@H]2C(=O)N[C@@H]([C@@H](C)O)C(=O)N[C@@H](CC(C)C)C(=O)N(C)[C@@H](C)C(=O)N1C [DP-62] ([dNMeA]F[NMeL]S(tBu)FPTL[NMeA][NMeI]GD-Piperidide; lactam N-12) |  |  | 22 µL/min/mg | 33 ×10⁻⁶ cm/s
6 | CC[C@H](C)[C@H]1C(=O)N(C)[C@@H](C)C(=O)N[C@@H](COC(C)(C)C)C(=O)N(C)[C@@H](CC(C)C)C(=O)N(C)[C@@H](CC(C)C)C(=O)N[C@H](C(=O)N2CCCCC2)CC(=O)N(C)[C@H](C)C(=O)N(C)[C@@H](Cc2ccccc2)C(=O)N[C@@H](C)C(=O)N(C)[C@@H](CC(C)C)C(=O)N[C@@H]([C@@H](C)O)C(=O)N[C@@H](Cc2ccccc2)C(=O)N1C [DP-63] ([dNMeA][NMeF]A[NMeL]TF[NMeI][NMeA]S(tBu)[NMeL][NMeL]D-Piperidide; lactam N-12) | 58 µL/min/mg | 17 ×10⁻⁶ cm/s |  | 
7 | CC[C@H](C)C1C(=O)N(C)[C@@H](Cc2ccccc2)C(=O)N[C@H](C(=O)N2CCCCC2)CC(=O)N(C)CC(=O)NC(CC(C)C)C(=O)N(C)[C@@H](Cc2ccccc2)C(=O)N(C)[C@@H](CC(C)C)C(=O)N[C@@H](C)C(=O)N(C)[C@@H](C(C)C)C(=O)N(C)[C@@H](C)C(=O)N[C@@H]([C@@H](C)O)C(=O)N(C)CC(=O)N1C (stereo partly drawn) [DP-64] ([Sar][ξL][NMeF][NMeL]A[NMeV][NMeA]T[Sar][NMeξIle][NMeF]D-Piperidide; lactam N-12) |  |  | 25 µL/min/mg | 24 ×10⁻⁶ cm/s
8 | CC[C@H](C)[C@H]1C(=O)N(C)[C@@H](CC(C)C)C(=O)N[C@H](C(=O)N2CCCCC2)CC(=O)N[C@H](C)C(=O)N[C@@H]([C@@H](C)O)C(=O)N(C)[C@@H](C)C(=O)N(C)[C@@H](Cc2ccccc2)C(=O)N2CCC[C@H]2C(=O)N[C@@H](C)C(=O)N(C)[C@@H](C(C)C)C(=O)N[C@@H](Cc2ccccc2)C(=O)N1C [DP-65] ([dA]T[NMeA][NMeF]PA[NMeV]F[NMeI][NMeL]D-Piperidide; lactam N-11) |  |  | 97 µL/min/mg | 14 ×10⁻⁶ cm/s
9 | CC(C)C[C@H]1C(=O)N(C)[C@@H](Cc2ccccc2)C(=O)N[C@@H](C)C(=O)N2CCC[C@H]2C(=O)N(C)[C@@H](CC(C)C)C(=O)N(C)[C@@H](Cc2ccccc2)C(=O)N(C)[C@@H](C(C)C)C(=O)N[C@H](C(=O)N2CCCCC2)CC(=O)N[C@H](C(C)C)C(=O)N[C@@H]([C@@H](C)O)C(=O)N(C)CC(=O)N1C [DP-66] ([dV]T[Sar][NMeL][NMeF]AP[NMeL][NMeF][NMeV]D-Piperidide; lactam N-11) |  |  | 69 µL/min/mg | 19 ×10⁻⁶ cm/s
10 | CC[C@H](C)[C@H]1C(=O)N(C)CC(=O)N(C)[C@@H](Cc2ccccc2)C(=O)N[C@H](C(=O)N2CCCCC2)CC(=O)N(C)CCC(=O)N(C)[C@@H](C(C)C)C(=O)N(C)[C@@H](CC(C)C)C(=O)N[C@@H](CC(C)C)C(=O)N[C@@H]([C@@H](C)O)C(=O)N(C)[C@@H](C)C(=O)N[C@@H](Cc2ccccc2)C(=O)N1C [DP-68] ([NMeβAla][NMeV][NMeL]LT[NMeA]F[NMeI][Sar][NMeF]D-Piperidide; lactam N-11) |  |  | 35 µL/min/mg | 26 ×10⁻⁶ cm/s
11 | CC[C@H](C)[C@H]1C(=O)N[C@@H]([C@@H](C)O)C(=O)N(C)[C@@H](C)C(=O)N(C)[C@@H](CC(C)C)C(=O)N[C@H](C(=O)N2CCCCC2)CC(=O)N(C)CC(=O)N(C)[C@@H](CC(C)C)C(=O)N[C@@H](CC(C)C)C(=O)N(C)[C@@H](Cc2ccccc2)C(=O)N[C@@H](COC(C)(C)C)C(=O)N(C)[C@@H](Cc2ccccc2)C(=O)N1C [DP-69] ([Sar][NMeL]L[NMeF]S(tBu)[NMeF][NMeI]T[NMeA][NMeL]D-Piperidide; lactam N-11) |  |  | 68 µL/min/mg | 21 ×10⁻⁶ cm/s
12 | CC[C@H](C)[C@H]1C(=O)N(C)[C@@H](Cc2ccccc2)C(=O)NCC(=O)N(C)[C@@H](Cc2ccccc2)C(=O)N(C)[C@@H](CC(C)C)C(=O)N(C)[C@@H](CC(C)C)C(=O)N[C@H](C(=O)N2CCCCC2)CC(=O)N[C@H](C(C)C)C(=O)N[C@@H]([C@@H](C)O)C(=O)N(C)[C@@H](C)C(=O)N1C [DP-72] ([dV]T[NMeA][NMeI][NMeF]G[NMeF][NMeL][NMeL]D-Piperidide; lactam N-10) |  |  | 58 µL/min/mg | 27 ×10⁻⁶ cm/s
13 | CC[C@H](C)[C@H]1C(=O)N[C@@H](C)C(=O)N[C@H](C(=O)N2CCCCC2)CC(=O)N(C)[C@@H](C)C(=O)N[C@@H]([C@@H](C)O)C(=O)N(C)[C@@H](C)C(=O)N(C)[C@@H](C(C)C)C(=O)N[C@@H](Cc2ccccc2)C(=O)N(C)CC(=O)N(C)[C@@H](CC(C)C)C(=O)N1C [DP-73] ([NMeA]T[NMeA][NMeV]F[Sar][NMeL][NMeI]AD-Piperidide; lactam N-10) |  |  | 30 µL/min/mg | 5.4 ×10⁻⁶ cm/s
14 | CC[C@H](C)[C@H]1C(=O)NCC(=O)N(C)[C@@H](Cc2ccccc2)C(=O)N(C)[C@@H](Cc2ccccc2)C(=O)N(C)[C@@H](CC(C)C)C(=O)N(C)[C@@H](CC(C)C)C(=O)N[C@H](C(=O)N2CCCCC2)CC(=O)N(C)[C@H](C)C(=O)N[C@@H]([C@@H](C)O)C(=O)N(C)[C@@H](C)C(=O)N1C [DP-74] ([dNMeA]T[NMeA][NMeI]G[NMeF][NMeF][NMeL][NMeL]D-Piperidide; lactam N-10) |  |  | 118 µL/min/mg | 29 ×10⁻⁶ cm/s
15 | CC[C@H](C)[C@H]1C(=O)N(C)[C@@H](CC(C)C)C(=O)N[C@H](C(=O)N2CCCCC2)CC(=O)N(C)CC(=O)N[C@@H]([C@@H](C)O)C(=O)N(C)[C@@H](C)C(=O)N(C)[C@@H](C(C)C)C(=O)N[C@@H](Cc2ccccc2)C(=O)N(C)CC(=O)N[C@@H](C)C(=O)N1C [DP-75] ([Sar]T[NMeA][NMeV]F[Sar]A[NMeI][NMeL]D-Piperidide; lactam N-10) |  |  | 27 µL/min/mg | 3.3 ×10⁻⁶ cm/s
16 | CC[C@H](C)[C@H]1C(=O)N(C)[C@@H](C)C(=O)N[C@H](C(=O)N2CCCCC2)CC(=O)N(C)CC(=O)N[C@@H](COC(C)(C)C)C(=O)N(C)CC(=O)N(C)[C@@H](CC(C)C)C(=O)N[C@@H]([C@@H](C)O)C(=O)N(C)[C@@H](Cc2ccccc2)C(=O)N(C)[C@@H](CC(C)C)C(=O)N1C [DP-76] ([Sar]S(tBu)[Sar][NMeL]T[NMeF][NMeL][NMeI][NMeA]D-Piperidide; lactam N-10) |  |  | 27 µL/min/mg | 16 ×10⁻⁶ cm/s
17 | CC[C@H](C)[C@H]1C(=O)N[C@H](C(=O)N2CCCCC2)CC(=O)N[C@H](C)C(=O)N(C)[C@@H](Cc2ccccc2)C(=O)N(C)[C@@H](CC(C)C)C(=O)N[C@@H]([C@@H](C)O)C(=O)N(C)CC(=O)N(C)[C@@H](CC(C)C)C(=O)N[C@@H](COC(C)(C)C)C(=O)N1C [DP-77] ([dA][NMeF][NMeL]T[Sar][NMeL]S(tBu)[NMeI]D-Piperidide; lactam N-9) |  |  | 33 µL/min/mg | 21 ×10⁻⁶ cm/s
